Holding throughout (assay): CellTiter-Glo in vitro cell proliferation assay, Example 8
What all share (assay type): cell-based, Human
A general note: In ATP-based viability assays light output follows the ATP content of the culture.

The test system of one test is KMS-34 cells. The settings on record: KMS-34, HMCL-B; read-out: Mean IC50. A digest of the protocol: (§1)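 72 h continuous exposure, 37 °C, humidified; conc. 0.0075–100 μM (DMSO); CellTiter-Glo luminescence, 60 min RT incubation before read.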
In another test the test system is BxPC-3 cells. To be noted: BxPC-3, Pancreatic; read-out: Mean IC50. A digest of the protocol:
as §1

In the next test the test system is FaDu cells. To be noted: H&N - SC, read-out: Mean IC50. A digest of the protocol: as §1
A further test relates to AN3CA cells. To be noted: Endometrial, read-out: Mean IC50. A digest of the protocol: as §1
Another test relates to H1975 (EGFR mut) cells. The settings on record: NSCLC, read-out: Mean IC50. A digest of the protocol:
as §1

The next test deals with MOLP-8 cells. The settings on record: MOLP-8, MM IgD; read-out: Mean IC50. A digest of the protocol: as §1
A further test has as its system A2780CP cells. To be noted: Ovarian, read-out: Mean IC50. A digest of the protocol:
as §1

The subject of the next test is HCC70 cells. The settings on record: HCC70, TNBC; read-out: Mean IC50. A digest of the protocol: as §1
The next test deals with JIM1 cells. To be noted: JIM1, HMCL; read-out: Mean IC50. A digest of the protocol: as §1
The test system of another test is MDA-MB-231 cells. To be noted: MDA-MB-231, TNBC; read-out: Mean IC50. A digest of the protocol: as §1
A further test deals with KMM-1 cells. The settings on record: KMM-1, HMCL-A; read-out: Mean IC50. A digest of the protocol: as §1
A further test has as its system SiHA cells. The settings on record: Cervical - SC, read-out: Mean IC50. A digest of the protocol: as §1
The test system of a further test is A2780 cells. The settings on record: A2780, Ovarian; read-out: Mean IC50. A digest of the protocol:
as §1

Another test deals with MDA-MB-468 cells. The settings on record: MDA-MB-468, TNBC; read-out: Mean IC50. A digest of the protocol: as §1
Another test deals with A498 cells. To be noted: A498, RCC; read-out: Mean IC50. A digest of the protocol: as §1
The next test deals with OCI-LY3 cells. The settings on record: OCI-LY3, ABC-DLBCL; read-out: Mean IC50. A digest of the protocol: as §1
The test system of the next test is ASPC-1 cells. The settings on record: ASPC-1, Pancreatic; read-out: Mean IC50. A digest of the protocol: as §1
A further test relates to DOHH-2 cells. To be noted: DoHH-2, GCB-DLBCL; read-out: Mean IC50. A digest of the protocol:
as §1

In the next test the test system is HEC-1a cells. To be noted: Endometrial, read-out: Mean IC50. A digest of the protocol:
as §1

For the next test, the system named is H1650 (EGFR mut) cells. To be noted: NSCLC, read-out: Mean IC50. A digest of the protocol:
as §1

For a further test, the system named is L363 cells. To be noted: L363, PCL/MM; read-out: Mean IC50. A digest of the protocol: as §1
The test system of the next test is MIA PaCa-2 cells. The settings on record: MIA PaCa-2, Pancreatic; read-out: Mean IC50. A digest of the protocol:
as §1

The test system of the next test is RPMI-8226 cells. The settings on record: RPMI-8226, HMM. A digest of the protocol:
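After 24 h plating, cells exposed to compound in DMSO over 0.0075–100 µM for 72 h at 37 °C. Viability read by CellTiter-Glo luminescence after 60 min at room temperature, relative to DMSO controls.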

The values that follow come from US12129265B2, “Therapeutic agents and uses thereof” (Ankh Life Sciences Limited, priority 2020, dated 2024).

Structures are written as SMILES.

The IC50 is the concentration at which inhibition is half-maximal.

As to `COc1ccc2c3c([nH]c2c1)C(CC(CC1=NCCc2c1[nH]c1cc(OC)ccc21)c1cc(OC)c(O)c([N+](=O)[O-])c1)=NCC3` [compound 5], the IC50 was found to be 17.4 µM in the test on KMS-34 cells; 21.2 µM in the test with BxPC-3 cells; 22.3 µM in the test with FaDu cells; 11.4 µM in the test with AN3CA cells; 28.1 µM in the test with H1975 (EGFR mut) cells; 14.4 µM in the test on MOLP-8 cells. Further, the half-maximal inhibitory concentration (IC50) turned out to be 24.6 µM in the test on A2780CP cells; 15.1 µM in the test with HCC70 cells; 17.7 µM in the test with JIM1 cells; 23.7 µM with MDA-MB-231 cells; 20.3 µM in the test with KMM-1 cells; 36.9 µM in the test on SiHA cells. Moreover, the IC50 in the test on A2780 cells came out at 24.1 µM; in the test on MDA-MB-468 cells, 14.7 µM; in the test with A498 cells it was 22.8 µM; in the test on OCI-LY3 cells, 12.3 µM; in the test on ASPC-1 cells it was 15.7 µM; in the test with DOHH-2 cells, 9.31 µM. Also, the IC50 in the test on HEC-1a cells worked out at 27 µM; in the test with H1650 (EGFR mut) cells it was 23.4 µM; in the test with L363 cells it was 22.2 µM; in the test on MIA PaCa-2 cells, 19.9 µM; with RPMI-8226 cells, 19.3 µM.
Take `COc1ccc2c3c([nH]c2c1)C(CC(CC1=NCCc2c1[nH]c1cc(OC)ccc21)c1cc(F)cc(F)c1)=NCC3` [compound 22]: the IC50 came out at 3.9 µM in the test on KMS-34 cells; 5.37 µM in the test with BxPC-3 cells; 11.1 µM in the test with FaDu cells; 4.15 µM in the test with AN3CA cells; 11.5 µM with H1975 (EGFR mut) cells; 3.83 µM with MOLP-8 cells. Besides, the IC50 in the test with A2780CP cells turned out to be 9.3 µM; in the test on HCC70 cells it was 13.2 µM; with JIM1 cells, 7.35 µM; in the test with MDA-MB-231 cells, 7.12 µM; in the test on KMM-1 cells, 6.21 µM; in the test on SiHA cells, 11.7 µM. Besides, the 50% inhibitory concentration (IC50) in the test with A2780 cells was 9.16 µM; with MDA-MB-468 cells, 11.5 µM; in the test on A498 cells, 21.6 µM; with OCI-LY3 cells, 9.73 µM; in the test with ASPC-1 cells, 8.61 µM; in the test with DOHH-2 cells, 4.26 µM. Besides, the half-inhibitory concentration (IC50) in the test on HEC-1a cells was determined as 11.8 µM; in the test on H1650 (EGFR mut) cells it was 11.1 µM; in the test with L363 cells, 6.12 µM; with MIA PaCa-2 cells it was 5.93 µM; in the test with RPMI-8226 cells it was 2.06 µM.
For `COc1ccc2c3c([nH]c2c1)C(CC(CC1=NCCc2c1[nH]c1cc(OC)ccc21)c1cccc(F)c1)=NCC3` [compound 20], the half-inhibitory concentration (IC50) in the test on KMS-34 cells was determined as 3.26 µM; with BxPC-3 cells it was 2.25 µM; in the test on FaDu cells it was 4.05 µM; with AN3CA cells, 1.86 µM; in the test with H1975 (EGFR mut) cells it was 6.41 µM; in the test on MOLP-8 cells it was 2.28 µM. In addition, the half-inhibitory concentration (IC50) with A2780CP cells turned out to be 5.06 µM; in the test on HCC70 cells, 6.35 µM; with JIM1 cells it was 4.28 µM; with MDA-MB-231 cells it was 4.71 µM; in the test with KMM-1 cells it was 3.66 µM; in the test with SiHA cells it was 6.73 µM. Further, the IC50 came out at 3.75 µM in the test on A2780 cells; 5.12 µM with MDA-MB-468 cells; 11.3 µM in the test on A498 cells; 3.85 µM in the test with OCI-LY3 cells; 3.66 µM with ASPC-1 cells; 1.88 µM with DOHH-2 cells. The 50% inhibitory concentration (IC50) is 11 µM with HEC-1a cells; 4.44 µM in the test on H1650 (EGFR mut) cells; 3.89 µM in the test on L363 cells; 2.72 µM with MIA PaCa-2 cells; 1.27 µM with RPMI-8226 cells.
As to `COc1ccc2c3c([nH]c2c1)C(CC(CC1=NCCc2c1[nH]c1cc(OC)ccc21)c1ccc(OC)c(O)c1)=NCC3` [compound 7], the IC50 is 11.1 µM with KMS-34 cells; 12.3 µM in the test with BxPC-3 cells; 13.7 µM in the test on FaDu cells; 11.5 µM with AN3CA cells; 60.8 µM with H1975 (EGFR mut) cells; 11.7 µM in the test on MOLP-8 cells. For the same compound, the IC50 with A2780CP cells was found to be 33.7 µM; in the test on HCC70 cells, 23.4 µM; with JIM1 cells, 14.4 µM; in the test with MDA-MB-231 cells it was 31.7 µM; in the test with KMM-1 cells it was 19.9 µM; with SiHA cells, 48.1 µM. Also, the IC50 came out at 33 µM in the test on A2780 cells; 11.2 µM with MDA-MB-468 cells; 29.3 µM in the test on A498 cells; 11.4 µM with OCI-LY3 cells; 40.9 µM in the test with ASPC-1 cells; 6.48 µM in the test on DOHH-2 cells. Also, the 50% inhibitory concentration (IC50) was 71.1 µM in the test on HEC-1a cells; 64.2 µM in the test on H1650 (EGFR mut) cells; 11.8 µM in the test with L363 cells; 16.2 µM with MIA PaCa-2 cells; 11.8 µM in the test on RPMI-8226 cells.
`COc1ccc2c3c([nH]c2c1)C(CC(CC1=NCCc2c1[nH]c1cc(OC)ccc21)c1cc(F)c(F)cc1F)=NCC3` [compound 23]: the IC50 in the test on KMS-34 cells amounted to 3.47 µM; with BxPC-3 cells it was 4.97 µM; with FaDu cells, 6.14 µM; in the test on AN3CA cells, 2.38 µM; in the test on H1975 (EGFR mut) cells, 8.23 µM; with MOLP-8 cells, 3.19 µM. The IC50 in the test with A2780CP cells stood at 6.49 µM; with HCC70 cells it was 10.9 µM; in the test on JIM1 cells it was 6.32 µM; in the test on MDA-MB-231 cells, 5.94 µM; in the test with KMM-1 cells it was 3.98 µM; with SiHA cells it was 11.7 µM. Also, the IC50 was determined as 5.07 µM with A2780 cells; 6.54 µM in the test with MDA-MB-468 cells; 21.4 µM in the test with A498 cells; 5.45 µM in the test with OCI-LY3 cells; 9.26 µM in the test with ASPC-1 cells; 3.73 µM in the test on DOHH-2 cells. Also, the half-inhibitory concentration (IC50) with HEC-1a cells came to 12.5 µM; in the test with H1650 (EGFR mut) cells, 5.89 µM; in the test on L363 cells it was 4.72 µM; with MIA PaCa-2 cells it was 5.64 µM; with RPMI-8226 cells it was 1.28 µM.
Regarding `COc1ccc2c3c([nH]c2c1)C(CC(CC1=NCCc2c1[nH]c1cc(OC)ccc21)c1ccccc1OC)=NCC3` [compound 1], the IC50 in the test with KMS-34 cells is 4.15 µM; in the test with BxPC-3 cells it was 4.3 µM; with FaDu cells, 5.36 µM; in the test with AN3CA cells, 2.5 µM; in the test on H1975 (EGFR mut) cells it was 6.54 µM; in the test with MOLP-8 cells, 1.98 µM. For the same compound, the IC50 came out at 4.45 µM with A2780CP cells; 8.02 µM with HCC70 cells; 4.51 µM in the test on JIM1 cells; 5.72 µM in the test on MDA-MB-231 cells; 4.2 µM with KMM-1 cells; 9.44 µM with SiHA cells. Also, the 50% inhibitory concentration (IC50) came out at 5.9 µM in the test on A2780 cells; 4.39 µM in the test on MDA-MB-468 cells; 9.91 µM in the test with A498 cells; 3.42 µM with OCI-LY3 cells; 6.44 µM with ASPC-1 cells; 2.25 µM with DOHH-2 cells. The IC50 in the test with HEC-1a cells is 9.27 µM; with H1650 (EGFR mut) cells, 8.18 µM; with L363 cells, 2.62 µM; in the test with MIA PaCa-2 cells, 3.67 µM; in the test with RPMI-8226 cells it was 1.87 µM.
In the case of `CCOc1cc(C(CC2=NCCc3c2[nH]c2cc(OC)ccc32)CC2=NCCc3c2[nH]c2cc(OC)ccc32)ccc1O` [compound 2], the concentration for half-maximal inhibition (IC50) was found to be 9.35 µM in the test with KMS-34 cells; 7.88 µM in the test on BxPC-3 cells; 13.5 µM in the test on FaDu cells; 6.72 µM with AN3CA cells; 19.5 µM in the test on H1975 (EGFR mut) cells; 5.3 µM in the test on MOLP-8 cells. For the same compound, the IC50 in the test on A2780CP cells was 20.2 µM; with HCC70 cells it was 21.2 µM; in the test with JIM1 cells, 11.5 µM; in the test on MDA-MB-231 cells it was 14.3 µM; with KMM-1 cells, 9.4 µM; in the test with SiHA cells, 17.1 µM. The IC50 in the test on A2780 cells amounted to 16.9 µM; with MDA-MB-468 cells, 9.9 µM; in the test on A498 cells it was 16.8 µM; with OCI-LY3 cells it was 6.58 µM; in the test with ASPC-1 cells, 15.2 µM; with DOHH-2 cells it was 3.66 µM. For the same compound, the IC50 stood at 21.6 µM in the test with HEC-1a cells; 21.6 µM in the test with H1650 (EGFR mut) cells; 6.26 µM with L363 cells; 7.51 µM with MIA PaCa-2 cells; 8.51 µM in the test with RPMI-8226 cells.
